Results published in ChEMBL document CHEMBL1255423, “Dinitroaniline activity in Toxoplasma gondii expressing wild-type or mutant alpha-tubulin” (Antimicrob Agents Chemother, 2010).
Activity calls are given as the source filed them. No cut-off for these calls is given here.

Experiments:
Format in all cases: functional, organism-based
Toxoplasma gondii [1] = test: Antimicrobial activity against Toxoplasma gondii RH infected in HFF cells by plaque assay
Toxoplasma gondii [2] = test: Antimicrobial activity against Toxoplasma gondii RH containing alpha1-tubulin V4L mutation infected in HFF cells by plaque assay
Toxoplasma gondii [3] = test: Antimicrobial activity against Toxoplasma gondii RH containing alpha1-tubulin S6I mutation infected in HFF cells by plaque assay
Toxoplasma gondii [4] = test: Antimicrobial activity against Toxoplasma gondii RH containing alpha1-tubulin F24H mutation infected in HFF cells by plaque assay
Toxoplasma gondii [5] = test: Antimicrobial activity against Toxoplasma gondii RH containing alpha1-tubulin H28Q mutation infected in HFF cells by plaque assay
Toxoplasma gondii [6] = test: Antimicrobial activity against Toxoplasma gondii RH containing alpha1-tubulin L136F mutation infected in HFF cells by plaque assay
Toxoplasma gondii [7] = test: Antimicrobial activity against Toxoplasma gondii RH containing alpha1-tubulin I235L mutation infected in HFF cells by plaque assay
Toxoplasma gondii [8] = test: Antimicrobial activity against Toxoplasma gondii RH containing alpha1-tubulin I235T mutation infected in HFF cells by plaque assay
Toxoplasma gondii [9] = test: Antimicrobial activity against Toxoplasma gondii RH containing alpha1-tubulin I235V mutation infected in HFF cells by plaque assay
Toxoplasma gondii [10] = test: Antimicrobial activity against Toxoplasma gondii RH containing alpha1-tubulin T239I mutation infected in HFF cells by plaque assay
Toxoplasma gondii [11] = test: Antimicrobial activity against Toxoplasma gondii RH containing alpha1-tubulin R243C mutation infected in HFF cells by plaque assay
Toxoplasma gondii [12] = test: Antimicrobial activity against Toxoplasma gondii RH containing alpha1-tubulin R243S mutation infected in HFF cells by plaque assay
Cryptosporidium parvum = test: Antimicrobial activity against Cryptosporidium parvum by short-term in vitro culture assay
Toxoplasma gondii [13] = test: Induction of parasite microtubule disruption Toxoplasma gondii RH infected in HFF cells by antitubulin antibody staining
Toxoplasma gondii [14] = test: Induction of parasite shape change Toxoplasma gondii RH infected in HFF cells at 0.25 uM by phase contrast microscopy

| SMILES | IC50 (Toxoplasma gondii [1]) | IC50 (Toxoplasma gondii [2]) | IC50 (Toxoplasma gondii [3]) | IC50 (Toxoplasma gondii [4]) | IC50 (Toxoplasma gondii [5]) | IC50 (Toxoplasma gondii [6]) | IC50 (Toxoplasma gondii [7]) | IC50 (Toxoplasma gondii [8]) | IC50 (Toxoplasma gondii [9]) | IC50 (Toxoplasma gondii [10]) | IC50 (Toxoplasma gondii [11]) | IC50 (Toxoplasma gondii [12]) | IC50 (Cryptosporidium parvum) | Activity (Toxoplasma gondii [13]) | Activity (Toxoplasma gondii [14]) |
| --- | --- | --- | --- | --- | --- | --- | --- | --- | --- | --- | --- | --- | --- | --- | --- |
| CCCN(CCC)c1c([N+](=O)[O-])cc(S(N)(=O)=O)cc1[N+](=O)[O-] [ORYZALIN] | 0.25 µM | 14.7 µM | 1.5 µM | 1.26 µM | 1.4 µM | 27.7 µM | 1.6 µM | 5.5 µM | 2.3 µM | 25.3 µM | 2.2 µM | 16 µM | 0.7 µM |  |  |
| C=C(C)CN(CC)c1c([N+](=O)[O-])cc(C(F)(F)F)cc1[N+](=O)[O-] [ETHALFLURALIN] | 0.26 µM | 13.5 µM | 2.5 µM | 2.1 µM | 4.2 µM | 24 µM | 1.4 µM | 1.7 µM | 0.65 µM | 28.7 µM | 1.6 µM | 19.5 µM |  |  |  |
| CCCN(CCC)c1c([N+](=O)[O-])cc(S(=O)(=O)Nc2ccccc2)cc1[N+](=O)[O-] | 6.7 µM | 26.2 µM | 12.4 µM | 17.2 µM | 12.4 µM | 9.7 µM | 7.7 µM | 16.9 µM | 4.7 µM | 17.1 µM | 17 µM | 13.3 µM |  |  |  |
| CCC(C)Nc1c([N+](=O)[O-])cc(C(C)(C)C)cc1[N+](=O)[O-] (centres undefined) [BUTRALIN] | 1.8 µM | 32.1 µM | 4.5 µM | 24.2 µM | 10.2 µM | 32 µM | 9.1 µM | 7.4 µM | 3.8 µM | 28.7 µM | 12.8 µM | 25.1 µM |  |  |  |
| CCCN(CCCl)c1c([N+](=O)[O-])cc(C(F)(F)F)cc1[N+](=O)[O-] [FLUCHLORALIN] | 0.33 µM | 8 µM | 1.9 µM | 3.2 µM | 1.6 µM | 22.2 µM | 1 µM | 2.1 µM | 0.77 µM | 20.5 µM | 2.2 µM | 17.7 µM | 1.81 µM |  |  |
| CCC(CC)Nc1c([N+](=O)[O-])cc(C)c(C)c1[N+](=O)[O-] [PENDIMETHALIN] | 0.26 µM | 3.2 µM | 0.75 µM | 3.2 µM | 2.5 µM | 13.2 µM | 1 µM | 0.71 µM | 0.34 µM | 12.2 µM | 1.1 µM | 9.7 µM | 0.19 µM |  |  |
| CCCN(CC1CC1)c1c([N+](=O)[O-])cc(C(F)(F)F)cc1[N+](=O)[O-] [PROFLURALIN] | 0.61 µM | 8.2 µM | 2.6 µM | 4.3 µM | 2.8 µM | 21.2 µM | 1.5 µM | 3.9 µM | 1.5 µM | 22.1 µM | 3.2 µM | 20.4 µM | 1.9 µM |  |  |
| CCCN(CCC)c1c([N+](=O)[O-])cc(C(F)(F)F)cc1[N+](=O)[O-] [TRIFLURALIN] | 0.52 µM | 13.8 µM | 2.8 µM | 4.2 µM | 5.3 µM | 27 µM | 1.9 µM | 5.1 µM | 1.8 µM | 23.4 µM | 4.1 µM | 23.3 µM | 1.94 µM |  |  |
| COP(=S)(NC(C)C)Oc1ccc(C)cc1[N+](=O)[O-] (centres undefined) [AMIPROPHOS METHYL] | 1 µM | 2.1 µM | 3.3 µM | 10 µM | 5.1 µM | 28.5 µM | 3.9 µM | 7.1 µM | 1.5 µM | 28.5 µM | 5.9 µM | 19.1 µM |  |  |  |
| CCN(CC)c1c([N+](=O)[O-])cc(C(F)(F)F)c(N)c1[N+](=O)[O-] [DINITRAMINE] | 0.045 µM | 3.4 µM | 0.42 µM | 0.37 µM | 0.51 µM | 12.5 µM | 0.32 µM | 0.32 µM | 0.089 µM | 26.6 µM | 0.33 µM | 18.4 µM |  | Active | Active |
| CCCN(CCC)c1c([N+](=O)[O-])cc(C(C)C)cc1[N+](=O)[O-] [ISOPROPALIN] | 0.88 µM | 7 µM | 2.2 µM | 3.5 µM | 3.4 µM | 15 µM | 2.2 µM | 4.3 µM | 2.2 µM | 15 µM | 4 µM | 13.5 µM |  |  |  |
| CCCN(CCC)c1c([N+](=O)[O-])cc(S(C)(=O)=O)cc1[N+](=O)[O-] [NITRALIN] | 0.5 µM | 19.2 µM | 2.1 µM | 3.7 µM | 1.8 µM | 31.3 µM | 2.1 µM | 4.9 µM | 1.6 µM | 30.3 µM | 4.3 µM | 23.9 µM | 4.5 µM |  |  |
| CCCCN(CC)c1c([N+](=O)[O-])cc(C(F)(F)F)cc1[N+](=O)[O-] [BENFLURALIN] | 1.5 µM | 18.8 µM | 7.4 µM | 15.7 µM | 15.2 µM | 27.7 µM | 4.6 µM | 9.3 µM | 3.7 µM | 22.9 µM | 12 µM | 21.7 µM |  |  |  |
